Experimental data: US20230338315A1, “METHOD OF PRODUCING PHARMACEUTICAL COCRYSTALS FOR ADDITIVE MANUFACTURING” (BOARD OF REGENTS, THE UNIVERSITY OF TEXAS SYSTEM, priority 2020, published 2023)

Tests used:
[1] = Preformulation studies: solubility in solvents; format: physicochemical; conditions: for Soluble in solvent ET-Acetate: solvent ethyl acetate
Protocol: Both the drug and conformer were soluble in ethyl acetate. Ethyl acetate was used to prepare pure MA-SAC cocrystals using slow solvent evaporation. Briefly, 1:1 molar ratio of MA and SAC were mixed using a mortar and pestle. This blend was dissolved in ethyl acetate at 50° C. in a glass beaker using a magnetic stirrer-hotplate. Once the physical mixture was dissolved, the solvent was placed on an ice bath to induce nucleation of the cocrystals, the beaker was then placed in fume hood until all the solvent was evaporated. After the solvent was evaporated, the crystals were placed in an oven at 60° C. to remove any residual solvent. The resultant crystals were tested for modulated differential scanning calorimetry. A clear phase separation was observed where crystals with two different habits were developed. Samples for each phase were collected and exposed to thermal analysis.

[2] = HPLC with mass spectrophotometer of hot melt extruded mefenamic acid (degradant identification); format: physicochemical
[3] = Preformulation studies with Kollidon VA64 (decomposition of mefenamic acid); format: physicochemical; conditions: presence of Kollidon VA64
[4] = cited from earlier work
[5] = cited from earlier work; remark: listed apart in the source

For `Cc1cccc(Nc2ccccc2C(=O)O)c1C` [Mefenamic acid], the “Soluble in solvent ACN” value [1] was “No”, the “Soluble in solvent Et—OH” value [1] was “Yes” and the “Soluble in solvent Me—OH” value [1] was “No”. The “Soluble in solvent ET-Acetate” value [1] was “Yes”, the “degradation or decarboxylation in the extruded samples” value ([2]; continuous, solvent-free, polymer assisted hot melt extrusion) was “no degradation or decarboxylation” and the “degradation on hot melt extrusion processing (mass spectroscopy)” value ([2]; processed with saccharin by HME at 200° C., 180° C., 170° C. and 160° C., no polymer carrier) was “decarboxylation”. For the same compound, the “effect of Kollidon VA64 on decomposition of mefenamic acid” value [3] was “can delay the decomposition”.
With `O=C1NS(=O)(=O)c2ccccc21` [Saccharin] the “Soluble in solvent ACN” value [1] was “Yes”, the “Soluble in solvent Et—OH” value [1] was “No” and the “Soluble in solvent Me—OH” value [1] was “Yes”. The “Soluble in solvent ET-Acetate” value [1] was “Yes”, the “Log P” value [4] was 0.91 and the pKa [5] was 1.31.
